In the NIST ThermoML archive (doi:10.1021/je060271a):
“And” between values parts separate entries of the source, which are not always exact repeats. Equal values may be shown once.

Conditions: 283.15 K, Liquid, Vibrating tube method

CCCCCC(=O)OCC(COC(=O)CCCCC)(COC(=O)CCCCC)COC(=O)CCCCC [pentaerythritol tetrahexanoate]
Conditions | mass density
9284.9 kPa | 1009.6 kg/m3
9306.2 kPa | 1009.5 kg/m3
9324.2 kPa | 1009.5 kg/m3
9341.7 kPa | 1009.5 kg/m3
9359.5 kPa | 1009.5 kg/m3
9380.7 kPa | 1009.4 kg/m3
9398.1 kPa | 1009.6 kg/m3
9416 kPa | 1009.6 kg/m3
9436.7 kPa | 1009.6 kg/m3
9454.6 kPa | 1009.6 kg/m3
9473 kPa | 1009.6 kg/m3
9490.6 kPa | 1009.6 kg/m3
9508.2 kPa | 1009.7 kg/m3
9529 kPa | 1009.7 kg/m3
9546.3 kPa | 1009.7 kg/m3
9563.7 kPa | 1009.7 kg/m3
9585 kPa | 1009.7 kg/m3
9602.4 kPa | 1009.6 kg/m3
9623.6 kPa | 1009.7 kg/m3
9642.2 kPa | 1009.7 kg/m3
9660.2 kPa | 1009.7 kg/m3
9681 kPa | 1009.8 kg/m3
9690.2 kPa | 1009.7 kg/m3
9690.5 kPa | 1009.7 kg/m3
9691 kPa | 1009.8 kg/m3
9691.2 kPa | 1009.9 kg/m3
9691.4 kPa | 1009.8 kg/m3
9691.5 kPa | 1009.7 kg/m3
9691.6 kPa | 1009.8 kg/m3
9691.9 kPa | 1009.7 kg/m3
9692 kPa | 1009.8 kg/m3
9692.1 kPa | 1009.6 kg/m3
9692.4 kPa | 1009.7 kg/m3
9692.6 kPa | 1009.8 kg/m3
9692.8 kPa | 1009.7 kg/m3
9693.3 kPa | 1009.8 kg/m3
9693.4 kPa | 1009.8 kg/m3
9693.8 kPa | 1009.8 kg/m3
9693.9 kPa | 1009.8 kg/m3
9694.3 kPa | 1009.8 kg/m3
9694.5 kPa | 1009.8 kg/m3
9695 kPa | 1009.8 kg/m3
9695.1 kPa | 1009.9 kg/m3
9695.3 kPa | 1009.9 kg/m3
9695.7 kPa | 1009.7 kg/m3 and 1009.8 kg/m3
9695.8 kPa | 1009.9 kg/m3
9696.2 kPa | 1009.8 kg/m3
9696.4 kPa | 1009.8 kg/m3
9696.5 kPa | 1009.8 kg/m3
9696.7 kPa | 1009.8 kg/m3
9696.9 kPa | 1009.8 kg/m3
9697.2 kPa | 1009.8 kg/m3
9697.6 kPa | 1009.8 kg/m3
9698.1 kPa | 1009.5 kg/m3 and 1009.8 kg/m3
9698.2 kPa | 1009.8 kg/m3
9698.3 kPa | 1009.9 kg/m3
9698.9 kPa | 1009.7 kg/m3
9699 kPa | 1009.7 kg/m3
9699.1 kPa | 1009.7 kg/m3
9699.3 kPa | 1009.7 kg/m3
9699.6 kPa | 1009.7 kg/m3
9699.8 kPa | 1009.7 kg/m3 and 1009.9 kg/m3
9700 kPa | 1009.8 kg/m3 and 1009.6 kg/m3
9700.1 kPa | 1009.8 kg/m3 and 1009.7 kg/m3
9700.3 kPa | 1009.7 kg/m3 and 1009.8 kg/m3
9700.7 kPa | 1009.7 kg/m3
9700.8 kPa | 1009.7 kg/m3
9701 kPa | 1009.7 kg/m3
9701.5 kPa | 1009.8 kg/m3 and 1009.7 kg/m3
9701.7 kPa | 1009.8 kg/m3
9754.8 kPa | 1009.8 kg/m3
9769.2 kPa | 1009.7 kg/m3
9783.6 kPa | 1009.8 kg/m3
9797.3 kPa | 1009.7 kg/m3
9814.5 kPa | 1009.7 kg/m3
9828.7 kPa | 1009.8 kg/m3
9845.7 kPa | 1009.7 kg/m3
9859.7 kPa | 1009.8 kg/m3
9874.3 kPa | 1009.8 kg/m3
9888.8 kPa | 1009.8 kg/m3
9905.8 kPa | 1009.8 kg/m3
9919.9 kPa | 1009.9 kg/m3
9934.6 kPa | 1009.9 kg/m3
9951.8 kPa | 1009.9 kg/m3
9966.6 kPa | 1009.9 kg/m3
9984 kPa | 1009.8 kg/m3
9998.7 kPa | 1009.8 kg/m3
10013 kPa | 1009.9 kg/m3
10027 kPa | 1010 kg/m3
10045 kPa | 1009.8 kg/m3
10060 kPa | 1009.9 kg/m3
10074 kPa | 1009.9 kg/m3
10091 kPa | 1010 kg/m3
10106 kPa | 1010 kg/m3
10120 kPa | 1009.9 kg/m3
10135 kPa | 1009.9 kg/m3
10152 kPa | 1010 kg/m3
10166 kPa | 1010 kg/m3
10181 kPa | 1010 kg/m3
10195 kPa | 1010 kg/m3
10212 kPa | 1010.1 kg/m3
10226 kPa | 1010.1 kg/m3
10244 kPa | 1010 kg/m3
10258 kPa | 1010 kg/m3
10273 kPa | 1010 kg/m3
10288 kPa | 1009.9 kg/m3
10305 kPa | 1010.1 kg/m3
10320 kPa | 1010 kg/m3
10334 kPa | 1010.1 kg/m3
10352 kPa | 1010.1 kg/m3
10367 kPa | 1010.2 kg/m3
10382 kPa | 1010.1 kg/m3
10400 kPa | 1010.1 kg/m3
10415 kPa | 1010.2 kg/m3
10430 kPa | 1010.1 kg/m3
10445 kPa | 1010.1 kg/m3
10463 kPa | 1010.2 kg/m3
10478 kPa | 1010.2 kg/m3
10496 kPa | 1010.1 kg/m3
10511 kPa | 1010.2 kg/m3
10526 kPa | 1010.1 kg/m3
10541 kPa | 1010.3 kg/m3
10559 kPa | 1010.2 kg/m3
10575 kPa | 1010.3 kg/m3
10590 kPa | 1010.2 kg/m3
10608 kPa | 1010.2 kg/m3
10622 kPa | 1010.3 kg/m3
10638 kPa | 1010.2 kg/m3
10656 kPa | 1010.3 kg/m3
10671 kPa | 1010.4 kg/m3
10686 kPa | 1010.3 kg/m3
10704 kPa | 1010.4 kg/m3
10719 kPa | 1010.2 kg/m3
10733 kPa | 1010.3 kg/m3
10749 kPa | 1010.2 kg/m3
10766 kPa | 1010.3 kg/m3
10780 kPa | 1010.3 kg/m3
10798 kPa | 1010.3 kg/m3
10812 kPa | 1010.4 kg/m3
10826 kPa | 1010.4 kg/m3
10840 kPa | 1010.4 kg/m3
10858 kPa | 1010.4 kg/m3
10872 kPa | 1010.3 kg/m3
10887 kPa | 1010.4 kg/m3
10904 kPa | 1010.4 kg/m3
